Results from article PMC12811501, “A plant-derived antimicrobial peptide with multiple mechanisms of action exhibiting antibacterial and antibiofilm activities comparable to or superior to polymyxin B” (Current Research in Microbial Sciences, 2025).
In brackets after ≈: the same amount, converted by molar mass. Like-named read-outs stand apart in the source and are kept apart here. Residues, ends and D or L forms follow the SMILES beside them.

Legend:
[1] = test system: Acinetobacter baumannii pre-formed biofilm; assay: microbe, parasite or virus in culture; format: cell-based; conditions: for MBC: 24 h
Method: For the biofilm eradication assay the difference was at the beginning of the experiments when bacteria were pre-cultured for 24 h or 72 h in MHB with a starting OD600 = 0.01. Then bacterial suspensions were removed from the wells followed by washing three times with 200 µl of 1/2 MHB. Subsequently fresh 1/10 MHB was added to the wells containing the respective dilutions of NCR169C17–38, meropenem or polymixin B and the treatment lasted either 3 h or 24 h. Experiments were done in three biological replicates.
To assess whether the NCR169C17–38 peptide or the tested antibiotics could eradicate pre-formed biofilms, A. baumannii was first cultured in MHB for 24 h, then treated with NCR169C17–38, meropenem or polymyxin B for either 3 h or 24 h, using the same concentration range as in the previous experiment. Both bacterial survival within the pre-formed biofilm and the amount of residual biofilm were assessed. […] In contrast, neither of the two antibiotics completely eliminated the bacteria within the tested concentration range. […] This 24 h of treatment was repeated on mature biofilm (pre-formed for 72 h) and the results were very similar (Supplementary Fig. 1.).

S. aureus = format: cell-based, Staphylococcus aureus; conditions: 8 h
Method: (§1) For serum stability test human blood was purchased from the Regional Blood Centre in Szeged (the use of human blood has been authorized by the Regional Hungarian Ethics Committee and approved by the Ethics Review Sector of DG RTD (European Commission) in connection with EK’s ERC AdG SymBiotics). The cells from 10 ml of EDTA-blood were centrifuged at 1500 × g for 1 min and washed several times in TBS buffer (10 mM Tris, pH: 7.2, 150 mM NaCl) until the supernatant, representing the serum, became colorless. The NCR169C17–38 peptide was added to the serum at 1:1 ratio and incubated at room temperature for 8 h. Subsequently, serial 2-fold dilutions of the peptide were prepared in PPB, with concentrations ranging from 100 to 0.2 µM and antimicrobial assay was done to determine the MBC values. Experiments were done in three biological replicates.

Acinetobacter baumannii = assay: microbe, parasite or virus in culture; format: cell-based
Method: For the biofilm inhibition assay the antimicrobial activity test was done in 1/10 MHB using A. baumannii treated with the respective dilutions of NCR169C17–38, meropenem or polymixin B for 24 h. After taking the 5 μl samples at the end of the treatment and placed on LB agar to detect bacterial growth, the rest of the grown bacterial suspensions were discarded from the plate and the remaining biofilm on the walls of the plate was then washed three times with sterile water and stained using 1 % Crystal Violet (CV) for 15 min to visualize the produced biofilm. The non-adherent CV dye was then removed by washing with water three times. The plate was left for complete drying, then the biofilm-bound CV dye was dissolved in 200 µl of 30 % acetic-acid with shaking over 15 min. The absorbance was measured at OD550 using a HIDEX Plate Reader (Hidex Sense Microplate Reader with Plate Reader Software version 5064, Hidex, Finland). All measurements were repeated three times.
We examined the capacity of NCR169C17–38 to inhibit biofilm formation by Acinetobacter baumannii, a pathogen well known for its robust biofilm production and high level of antibiotic resistance. […] Additionally, at the end of the experiment we determined the quantity of the biofilm and thereby evaluated their ability to inhibit biofilm formation during culturing the bacteria in the presence of different concentrations of the agents (Fig. 1.A). We tested concentrations of NCR169C17–38 ranging from 25 μM to 0.4 μM, meropenem from 100 μM to 1.6 μM and polymyxin B from 3.1 μM to 0.05 μM.

[2] = test system: mouse macrophage J774.2 cells; conditions: cited from earlier work
[3] = test system: circular plasmid DNA (pDEST-GBKT7); assay: Gel retardation assay; format: binding; conditions: 250 ng circular plasmid DNA, peptide 50 µM to 0.8 µM
Method: The DNA- and RNA-binding abilities of NCR169C17–38, its parental peptide NCR169, and two shorter derivatives (NCR169_16–27 and NCR169_17–27) were initially evaluated using a gel retardation assay. In this setup, 100 ng of either E. coli genomic DNA or total RNA was incubated with 10 µM or 100 µM of each peptide for 30 min at 37 °C. Reaction mixtures, along with untreated controls, were then subjected to agarose gel electrophoresis, and the resulting nucleic acid migration patterns were examined for changes indicative of peptide binding. The interaction of NCR169C17–38 with circular plasmid DNA (pDEST-GBKT7) was also characterized using peptide concentrations ranging from 50 µM to 0.8 µM, prepared by 2-fold serial dilution. Experiments were done in three biological replicates.
To explore whether the NCR169C17–38 peptide has secondary intracellular targets of the bacterial cells beyond the primary membrane disruption, we tested its possible interaction with nucleic acids in gel retardation assays. A pilot experiment indicated strong DNA-binding capacity, prompting us to include the parental NCR169 peptide and the shorter derivatives NCR169_16–27 and NCR169_17–27 for comparison (Fig. 3.). […] Similar results were obtained with total E. coli RNA (Fig. 3.B). […]

E. coli = format: cell-based, Escherichia coli; conditions: 8 h
Method: as §1

CC[C@H](C)[C@H](NC(=O)[C@H](CCCCN)NC(=O)[C@H](Cc1ccccc1)NC(=O)[C@H](CC(C)C)NC(=O)[C@@H]1CCCN1C(=O)[C@H](CCCCN)NC(=O)[C@H](CCCCN)NC(=O)[C@H](CO)NC(=O)[C@@H](N)CCCCN)C(=O)N[C@@H](Cc1c[nH]c2ccccc12)C(=O)N[C@@H](CCCCN)C(=O)N[C@@H](CS)C(=O)N[C@H](C(=O)N[C@@H](CCC(=O)O)C(=O)N[C@@H](CC(N)=O)C(=O)N[C@H](C(=O)N[C@@H](CS)C(=O)N[C@H](C(=O)N[C@@H](CC(C)C)C(=O)N[C@@H](Cc1c[nH]c2ccccc12)C(=O)N[C@@H](Cc1ccc(O)cc1)C(=O)N[C@@H](CCCCN)C(N)=O)C(C)C)C(C)C)C(C)C [NCR169C17–38] (H-KSKKPLFKIWKCVENVCVLWYK-NH2; N-terminus assumed)
degradation of pre-formed biofilm ([1]; A. baumannii biofilm pre-formed 24 h, 24 h of treatment, Crystal Violet OD550): successful even at sub-MBC level
MBC ([1]; pre-formed biofilm, read-out: MBC, Eradication test after 3 h): 6.3 µM (≈ 17.3 µg/mL)
MBC ([1]; pre-formed biofilm, read-out: MBC, Eradication test after 24 h): 12.5 µM (≈ 34.2 µg/mL)
concentration degrading the mature biofilm (sub-MBC level) ([1]; pre-formed biofilm, 72 h): 3.1 µM
MBC after pre-incubation in human serum (S. aureus): 3.1 µM (≈ 8.49 µg/mL)
MBC (Acinetobacter baumannii; 24 h, read-out: MBC, Inhibition test after 24 h): 6.3 µM (≈ 17.3 µg/mL)
inhibition of biofilm formation (Crystal Violet, OD550) (Acinetobacter baumannii; A. baumannii, 24 h treatment, NCR169C17–38 25-0.4 μM, meropenem 100-1.6 μM, polymyxin B 3.1-0.05 μM): remaining effective even at lower doses
cytotoxicity [2]: non-cytotoxic
plasmid DNA binding, gel retardation [3]: complete retention of DNA in the well at higher concentrations
MBC after pre-incubation in human serum (E. coli): 3.1 µM (≈ 8.49 µg/mL)
